Measurements as given in patent US9540363B2, “Solid oral formulations and crystalline forms of an inhibitor of apoptosis protein” (Novartis AG, priority 2009, dated 2017).

Legend:
[1] = Water sorption and desorption (hygroscopicity) of crystalline forms; assay type: physicochemical; conditions: for maximum water uptake: at 25° C. up to 95% RH; for hygroscopicity: crystalline solid form
Text: The crystalline forms of compound of Formula (I), its salts and solvates can be characterized by a number of methods, including but not limited to, Powder X-Ray diffraction (PXRD), simulated powder X-ray patterns (Yin. S.; Scaringe, R. P.; DiMarco, J.; Galella, M. and Gougoutas, J. Z., American Pharmaceutical Review, 2003, 6, 2, 80), Differential scanning calorimetry (DSC) experiments, Solid-state C-13 NMR measurements, (W. L. Earl and D. L. VanderHart, J. Magn. Reson., 1982, 48, 35-54), Raman spectroscopy, Infra-red spectroscopy, Moisture sorption isotherms (VTI—variable temperature isotherms), and hot stage techniques.
(§1) The crystalline forms HA, A, B, C, and D obtained in Examples 11-16 are analyzed by various standard methods: XPRD, DSC, TGA, Microscopy. Water sorption and desorption is also examined.

[2] = Heating of the hemihydrate form (dehydration and form conversion); assay type: physicochemical; conditions: upon heating
Method: Form B can be obtained by heating the hemihydrate Form HA above 100° C. over a period of time to remove the water completely, by equilibrating the hemihydrate Form HA in heptane at 50° C., or by cooling crystallization from methyl isobutyl ketone.
as §1

Row | SMILES | maximum water uptake [1] | hygroscopicity [1] | water content ([1]; between 10% relative humidity (RH) and 70% RH) [%] | additional moisture taken up ([1]; from 70% RH to 95% RH) [%] | heating temperature at which the form loses water and converts to Form B [2]
1 | CN[C@@H](C)C(=O)N[C@H](C(=O)N1CCC[C@H]1c1nc(C(=O)c2ccc(F)cc2)cs1)C1CCCCC1 [Form A, (S)—N—((S)-1-cyclohexyl-2-{(S)-2-[4-(4-fluoro-benzoyl)-thiazol-2-yl]-pyrrolidin-1-yl}-2-oxo-ethyl)-2-methylamino-propionamide] | about 0.8% | slightly hygroscopic | – | – | –
2 | CN[C@@H](C)C(=O)N[C@H](C(=O)N1CCC[C@H]1c1nc(C(=O)c2ccc(F)cc2)cs1)C1CCCCC1 [Form B, (S)—N—((S)-1-cyclohexyl-2-{(S)-2-[4-(4-fluoro-benzoyl)-thiazol-2-yl]-pyrrolidin-1-yl}-2-oxo-ethyl)-2-methylamino-propionamide] | about 0.5% | slightly hygroscopic | – | – | –
3 | CN[C@@H](C)C(=O)N[C@H](C(=O)N1CCC[C@H]1c1nc(C(=O)c2ccc(F)cc2)cs1)C1CCCCC1 [Form C, (S)—N—((S)-1-cyclohexyl-2-{(S)-2-[4-(4-fluoro-benzoyl)-thiazol-2-yl]-pyrrolidin-1-yl}-2-oxo-ethyl)-2-methylamino-propionamide] | less than 0.2% | nonhygroscopic | – | – | –

Results, then the compound that gave them:

Row | maximum water uptake [1] | hygroscopicity [1] | water content ([1]; between 10% relative humidity (RH) and 70% RH) [%] | additional moisture taken up ([1]; from 70% RH to 95% RH) [%] | heating temperature at which the form loses water and converts to Form B [2] | SMILES
4 | less than 0.5% | slightly hygroscopic | – | – | – | CN[C@@H](C)C(=O)N[C@H](C(=O)N1CCC[C@H]1c1nc(C(=O)c2ccc(F)cc2)cs1)C1CCCCC1 [Form D, (S)—N—((S)-1-cyclohexyl-2-{(S)-2-[4-(4-fluoro-benzoyl)-thiazol-2-yl]-pyrrolidin-1-yl}-2-oxo-ethyl)-2-methylamino-propionamide]
5 | – | slightly hygroscopic | ~1.7 | ~0.4 | above 100 °C | CN[C@@H](C)C(=O)N[C@H](C(=O)N1CCC[C@H]1c1nc(C(=O)c2ccc(F)cc2)cs1)C1CCCCC1 [Form HA, (S)—N—((S)-1-cyclohexyl-2-{(S)-2-[4-(4-fluoro-benzoyl)-thiazol-2-yl]-pyrrolidin-1-yl}-2-oxo-ethyl)-2-methylamino-propionamide]
